Organism: Rattus norvegicus
Test: Open TG-GATES - Regimen: Daily Repeat
Type: toxicity, organism-based, Sprague-Dawley
Design: regimen Daily Repeat, gender Male, age 6 weeks
Conditions: in vivo, po, route gavage; for APTT / Bas / Eos / Fbg / Hb / Ht / Lym / MCH / MCHC / MCV / Mono / Neu / PT / Plat / RBC / Ret / WBC: tissue Blood; for KIDNEY_L / KIDNEY_R / KIDNEY_TOTAL: tissue Kidney; for LIVER: tissue Liver; for A/G / ALP / ALT / AST / BUN / CRE / Ca / Cl / DBIL / GLC / IP / K / LDH / Na / PL / RALB / TBIL / TC / TG / TP / gamma-GTP: tissue Plasma
[1] = 30 mg/kg, 72 h, dose level Middle, time 3 day
[2] = 30 mg/kg, […], dose level Middle, time 7 day
[3] = 30 mg/kg, […], dose level Middle, time 14 day
[4] = 30 mg/kg, […], dose level Middle, time 28 day
[5] = 100 mg/kg, 72 h, dose level High, time 3 day
[6] = 100 mg/kg, […], dose level High, time 7 day
[7] = 100 mg/kg, […], dose level High, time 14 day
[8] = 100 mg/kg, […], dose level High, time 28 day

## CC1=C(/C=C/C(C)=C/C=C/C(C)=C/CO)C(C)(C)CCC1 [RETINOL]
[1]
  TERMINAL_BW: 230.8 g
  APTT: 23.3 s
  Bas: 0%
  Eos: 0.8%
  Fbg: 299 mg/dL
  Hb: 13.5 g/dL
  Ht: 39%
  Lym: 79.4%
  MCH: 21.5 pg
  MCHC: 34.7%
  MCV: 62 fL
  Mono: 2.4%
  Neu: 16.6%
  PT: 16.8 s
  Plat: 120.5 x10_4/uL
  RBC: 629.4 x10_4/ul
  Ret: 5.6%
  WBC: 103.8 x10_2/uL
  KIDNEY_L: 1 g
  KIDNEY_R: 0.9 g
  KIDNEY_TOTAL: 1.9 g
  LIVER: 11.2 g
  A/G: 1.3
  ALP: 2028 IU/L
  ALT: 48.8 IU/L
  AST: 78.6 IU/L
  BUN: 19.4 mg/dL
  CRE: 0.2 mg/dL
  Ca: 11 mg/dL
  Cl: 106.8 meq/L
  DBIL: 0.002 mg/dL
  GLC: 188.6 mg/dL
  IP: 6.4 mg/dL
  K: 4.3 meq/L
  LDH: 235.6 IU/L
  Na: 141.2 meq/L
  PL: 166.4 mg/dL
  RALB: 3.2 g/dL
  TBIL: 0.012 mg/dL
  TC: 78.8 mg/dL
  TG: 150 mg/dL
  TP: 5.7 g/dL
  gamma-GTP: 1.6 IU/L
[2]
  TERMINAL_BW: 256.2 g
  APTT: 26.4 s
  Bas: 0%
  Eos: 0.8%
  Fbg: 275.2 mg/dL
  Hb: 13.7 g/dL
  Ht: 39.4%
  Lym: 83.6%
  MCH: 20.8 pg
  MCHC: 34.8%
  MCV: 59.8 fL
  Mono: 1.6%
  Neu: 13.2%
  PT: 15.8 s
  Plat: 125.2 x10_4/uL
  RBC: 660.2 x10_4/ul
  Ret: 4.6%
  WBC: 81.8 x10_2/uL
  KIDNEY_L: 1.1 g
  KIDNEY_R: 1.1 g
  KIDNEY_TOTAL: 2.2 g
  LIVER: 11.7 g
  A/G: 1.2
  ALP: 1900.8 IU/L
  ALT: 48.4 IU/L
  AST: 82 IU/L
  BUN: 17.2 mg/dL
  CRE: 0.2 mg/dL
  Ca: 10.5 mg/dL
  Cl: 108.8 meq/L
  DBIL: 0.002 mg/dL
  GLC: 191 mg/dL
  IP: 6.6 mg/dL
  K: 4.4 meq/L
  LDH: 208.2 IU/L
  Na: 143 meq/L
  PL: 148.6 mg/dL
  RALB: 3 g/dL
  TBIL: 0.002 mg/dL
  TC: 71.4 mg/dL
  TG: 175.2 mg/dL
  TP: 5.5 g/dL
  gamma-GTP: 1 IU/L
[3]
  TERMINAL_BW: 297 g
  APTT: 28.5 s
  Bas: 0%
  Eos: 0.8%
  Fbg: 290.2 mg/dL
  Hb: 13.4 g/dL
  Ht: 38.1%
  Lym: 76.2%
  MCH: 20 pg
  MCHC: 35.1%
  MCV: 56.9 fL
  Mono: 2.6%
  Neu: 19.8%
  PT: 15.9 s
  Plat: 103.9 x10_4/uL
  RBC: 671.4 x10_4/ul
  Ret: 3.9%
  WBC: 101 x10_2/uL
  KIDNEY_L: 1.2 g
  KIDNEY_R: 1.2 g
  KIDNEY_TOTAL: 2.4 g
  LIVER: 14.1 g
  A/G: 1.2
  ALP: 1990.8 IU/L
  ALT: 49.4 IU/L
  AST: 83.8 IU/L
  BUN: 17.4 mg/dL
  CRE: 0.2 mg/dL
  Ca: 10.5 mg/dL
  Cl: 108.2 meq/L
  DBIL: 0 mg/dL
  GLC: 198.6 mg/dL
  IP: 5.9 mg/dL
  K: 4.2 meq/L
  LDH: 269 IU/L
  Na: 142.8 meq/L
  PL: 172.6 mg/dL
  RALB: 3 g/dL
  TBIL: 0.002 mg/dL
  TC: 74.4 mg/dL
  TG: 312 mg/dL
  TP: 5.6 g/dL
  gamma-GTP: 1.2 IU/L
[4]
  TERMINAL_BW: 360.9 g
  APTT: 37.3 s
  Bas: 0%
  Eos: 0.8%
  Fbg: 283 mg/dL
  Hb: 13.8 g/dL
  Ht: 38.6%
  Lym: 76.4%
  MCH: 19.6 pg
  MCHC: 35.7%
  MCV: 54.9 fL
  Mono: 2%
  Neu: 19.8%
  PT: 17.3 s
  Plat: 116.5 x10_4/uL
  RBC: 704 x10_4/ul
  Ret: 2.7%
  WBC: 133 x10_2/uL
  KIDNEY_L: 1.4 g
  KIDNEY_R: 1.4 g
  KIDNEY_TOTAL: 2.8 g
  LIVER: 15.1 g
  A/G: 1
  ALP: 1673.8 IU/L
  ALT: 56.6 IU/L
  AST: 79.8 IU/L
  BUN: 16.2 mg/dL
  CRE: 0.2 mg/dL
  Ca: 10.1 mg/dL
  Cl: 108 meq/L
  DBIL: 0 mg/dL
  GLC: 183.4 mg/dL
  IP: 6.2 mg/dL
  K: 4.2 meq/L
  LDH: 138.4 IU/L
  Na: 141 meq/L
  PL: 145 mg/dL
  RALB: 2.9 g/dL
  TBIL: 0.026 mg/dL
  TC: 66.6 mg/dL
  TG: 203.4 mg/dL
  TP: 5.7 g/dL
  gamma-GTP: 1.2 IU/L
[5]
  TERMINAL_BW: 214.3 g
  APTT: 29 s
  Bas: 0%
  Eos: 0.4%
  Fbg: 274.4 mg/dL
  Hb: 13.8 g/dL
  Ht: 39.8%
  Lym: 74.4%
  MCH: 21 pg
  MCHC: 34.6%
  MCV: 60.9 fL
  Mono: 3.4%
  Neu: 20.6%
  PT: 18.1 s
  Plat: 112.8 x10_4/uL
  RBC: 654.8 x10_4/ul
  Ret: 4.3%
  WBC: 95.3 x10_2/uL
  KIDNEY_L: 1 g
  KIDNEY_R: 1 g
  KIDNEY_TOTAL: 2 g
  LIVER: 10.3 g
  A/G: 1.3
  ALP: 2174.2 IU/L
  ALT: 52.2 IU/L
  AST: 83.8 IU/L
  BUN: 17 mg/dL
  CRE: 0.1 mg/dL
  Ca: 11.1 mg/dL
  Cl: 107 meq/L
  DBIL: 0.004 mg/dL
  GLC: 192.2 mg/dL
  IP: 7.9 mg/dL
  K: 4.3 meq/L
  LDH: 241 IU/L
  Na: 141.8 meq/L
  PL: 151.2 mg/dL
  RALB: 3.1 g/dL
  TBIL: 0.01 mg/dL
  TC: 70.6 mg/dL
  TG: 196.2 mg/dL
  TP: 5.6 g/dL
  gamma-GTP: 1.4 IU/L
[6]
  TERMINAL_BW: 231.5 g
  APTT: 32.7 s
  Bas: 0%
  Eos: 0.2%
  Fbg: 293.8 mg/dL
  Hb: 13.6 g/dL
  Ht: 38.5%
  Lym: 73.2%
  MCH: 21.1 pg
  MCHC: 35.2%
  MCV: 60 fL
  Mono: 2.6%
  Neu: 22.4%
  PT: 16.1 s
  Plat: 114.4 x10_4/uL
  RBC: 642.2 x10_4/ul
  Ret: 2%
  WBC: 102.2 x10_2/uL
  KIDNEY_L: 1.1 g
  KIDNEY_R: 1.1 g
  KIDNEY_TOTAL: 2.2 g
  LIVER: 11.9 g
  A/G: 1
  ALP: 2413.2 IU/L
  ALT: 47.8 IU/L
  AST: 91.4 IU/L
  BUN: 16.8 mg/dL
  CRE: 0.2 mg/dL
  Ca: 11.5 mg/dL
  Cl: 104.8 meq/L
  DBIL: 0 mg/dL
  GLC: 182.6 mg/dL
  IP: 8.9 mg/dL
  K: 4.3 meq/L
  LDH: 266 IU/L
  Na: 142.6 meq/L
  PL: 162.2 mg/dL
  RALB: 2.8 g/dL
  TBIL: 0.008 mg/dL
  TC: 76.4 mg/dL
  TG: 306.2 mg/dL
  TP: 5.6 g/dL
  gamma-GTP: 1.4 IU/L
[7]
  TERMINAL_BW: 234.2 g
  APTT: 43.8 s
  Bas: 0%
  Eos: 0.4%
  Fbg: 373.8 mg/dL
  Hb: 13 g/dL
  Ht: 36.5%
  Lym: 62.8%
  MCH: 20.2 pg
  MCHC: 35.6%
  MCV: 56.6 fL
  Mono: 4.2%
  Neu: 31.8%
  PT: 18.5 s
  Plat: 127.2 x10_4/uL
  RBC: 644.8 x10_4/ul
  Ret: 1.3%
  WBC: 139.1 x10_2/uL
  KIDNEY_L: 1.1 g
  KIDNEY_R: 1.1 g
  KIDNEY_TOTAL: 2.2 g
  LIVER: 11.2 g
  A/G: 0.7
  ALP: 1719.6 IU/L
  ALT: 43.8 IU/L
  AST: 99.6 IU/L
  BUN: 13.6 mg/dL
  CRE: 0.2 mg/dL
  Ca: 11.3 mg/dL
  Cl: 106.2 meq/L
  DBIL: 0 mg/dL
  GLC: 186.6 mg/dL
  IP: 7.7 mg/dL
  K: 4.1 meq/L
  LDH: 212.8 IU/L
  Na: 141.8 meq/L
  PL: 136.2 mg/dL
  RALB: 2.1 g/dL
  TBIL: 0.002 mg/dL
  TC: 67.8 mg/dL
  TG: 151.8 mg/dL
  TP: 5 g/dL
  gamma-GTP: 1.2 IU/L
[8]
  TERMINAL_BW: 190.7 g
  APTT: 37 s
  Bas: 0%
  Eos: 0.5%
  Fbg: 294 mg/dL
  Hb: 12.1 g/dL
  Ht: 34.3%
  Lym: 60.5%
  MCH: 17.9 pg
  MCHC: 35.2%
  MCV: 50.8 fL
  Mono: 5%
  Neu: 33.5%
  PT: 17.8 s
  Plat: 144.9 x10_4/uL
  RBC: 673 x10_4/ul
  Ret: 2.9%
  WBC: 160.4 x10_2/uL
  KIDNEY_L: 1 g
  KIDNEY_R: 1.1 g
  KIDNEY_TOTAL: 2.1 g
  LIVER: 9.5 g
  A/G: 0.6
  ALP: 1327.7 IU/L
  ALT: 55.3 IU/L
  AST: 166.3 IU/L
  BUN: 52 mg/dL
  CRE: 0.3 mg/dL
  Ca: 10.5 mg/dL
  Cl: 113 meq/L
  DBIL: 0.01 mg/dL
  GLC: 225 mg/dL
  IP: 9.1 mg/dL
  K: 4.1 meq/L
  LDH: 685.3 IU/L
  Na: 148.3 meq/L
  PL: 85 mg/dL
  RALB: 1.7 g/dL
  TBIL: 0.0233 mg/dL
  TC: 43.7 mg/dL
  TG: 57.3 mg/dL
  TP: 4.4 g/dL
  gamma-GTP: 2.3 IU/L
